Reference: patent US20070071672A1, “Use of metal tricarbonyl complexes as radiotherapeutic chemotoxic agents” (priority 2003, published 2007)

Key:
ΦX174 plasmid DNA [1] = experiment: Interaction with ΦX174 plasmid DNA, gel electrophoretic mobility shift; assay type: binding; details: [complex]/[bp] 0.018-1.8/1, water, 37° C., 22 h, agarose gel
Method: (§1) ΦX174 plasmids were purchased from Promega and used without further purification. ΦX174 RF plasmid DNA (0.1 mg) was mixed with the corresponding rhenium complexes in H2O at [complex]/[bp] 0.018-1.8/1. The mixtures were incubated in water at 37° C. for 22 h in the dark before analyzing by gel electrophoresis. The pH of the mixtures remained constant at ≈7 in all cases.
(§2) DNA binding was examined by gel electrophoretic mobility shift assays through 9 cm 0.75% agarose slab gels with TAE running buffer. The gels were run at RT, with voltages varying between 50 and 75 V. Running time depended upon the voltage and were usually between 1.5-2 h. The resultant gels were stained with ethidium bromide in the buffer at a concentration of ≈0.3 μg/mL. Bands were visualized by […] UV transillumination equipped with a digital camera.

[2] = system: MDA-MB-4355 Breast Cancer Cells; experiment: XTT cell proliferation assay, breast cancer cells; parameters: species or system human; details: 200 μM based on Re, 24 h
Method: (§3) In a typical experiment (see FIG. 10) an average of 2000 cells were grown in microtiter plates (tissue culture grade, 96 wells, flat bottom) in a final volume of 100 μL culture medium per well in a humidified-atmosphere (37° C., >6.5% CO2). After 24 h the rhenium complex was added the wells (final concentrations 200 μM based on Re) and the cells were grown for further 24 h under a humidified atmosphere. After the incubation period 50 μL of the XTT labeling mixture were added to each well. The plates were incubated again for 4 h. After the this final incubation period the spectrophotometrical absorbance (optical density OD) of each well was measured at 450 nm.
(§4) Control experiments were performed as described above without the addition of the rhenium compounds. Blanks were obtained by adding 50 μL of H2O instead of the XTT labeling mixture. Experiments were done in double and the results represent the average.
(§5) The % of cell survival was calculated base on the relative OD of the samples. Maximum control OD was set to 100% cell survival.

[3] = system: OVMZ-6-WT Ovarian Cancer Cells; experiment: XTT cell proliferation assay, ovarian cancer cells; parameters: species or system human; details: 200 μM based on Re, 24 h
Method: as §3, §4, §5
(§6) The procedure is as described in Example 10 and FIG. 10. Only the cancer cell line varies.

[4] = system: B16 F1 mouse melanoma cells; experiment: XTT cell proliferation assay, melanoma cells; details: 200 μM based on Re (lower for poorly soluble complexes), 24 h
Method: as §3, §4, §5, §6

ΦX174 plasmid DNA [5] = experiment: Stability of the [M(CO)3]+ ΦX174 plasmid DNA adduct, histidine challenge; assay type: binding; details: 100-fold excess of histidine
Method: as §1, §2
Complexes 1 and 7 were incubated with ΦX174 plasmid DNA as described in Example 6. Subsequently, the plasmid was challenged with histidine to cleave the complexes from ΦX174 plasmid DNA.

| Compound | scrambling (structural change) of ΦX174 plasmid DNA (ΦX174 plasmid DNA [1]) | cytotoxicity (% of cell survival) [2] | cytotoxicity (% of cell survival) [3] | cytotoxicity (% of cell survival) [4] | release of complex from ΦX174 plasmid DNA by histidine (ΦX174 plasmid DNA [5]) |
| --- | --- | --- | --- | --- | --- |
| N.N.[Cl][Pt][Cl] [cisplatin, reference compound] | increased amount of scrambling |  |  |  |  |
| (Et4N)2[ReBr3(CO)3] [Complex 1] |  | inhibit cell proliferation | inhibits cell proliferation | strongly inhibit cell proliferation | no release could be observed |
| [Re(9-MeG)2(H2O) (CO)3] (ClO4) [Complex 3] |  | inhibit cell proliferation |  |  |  |
